As a reminder, the IC50 is the concentration needed to halve the response being measured. A low value points to higher potency.

The results in this text go back to BindingDB's records for doi:10.1016/j.bioorg.2017.04.001 (China Pharmaceutical University, 2017).

Assay [1] has as its target Vascular endothelial growth factor receptor 2 (Homo sapiens, UniProt P35968). Kind of assay: In Vitro c-Met and VEGFR-2 Enzyme Assay. To be noted: pH 7.4; 37 °C. The protocol: (§1) Briefly, 20 μg/mL poly (Glu,Tyr) 4:1 (Sigma) was pre-coated in 96-well plates as a substrate. A 50 μL aliquot of 10 μmol/L ATP solution diluted in kinase reaction buffer (50 mmol/L HEPES [pH 7.4], 50 mmol/L MgCl2, 0.5 mmol/L MnCl2, 0.2 mmol/L Na3VO4, and 1 mmol/L DTT) was added to each well; 1 μL of various concentrations of indicated compounds diluted in 1% DMSO (v/v) (Sigma) was then added to each reaction well. DMSO (1%, v/v) was used as the negative control. The kinase reaction was initiated by the addition of purified tyrosine kinase proteins diluted in 49 μL of kinase reaction buffer. After incubation for 60 min at 37 °C, the plate was washed three times with phosphate-buffered saline (PBS) containing 0.1% Tween 20 (T-PBS). Anti-phosphotyrosine (PY99) antibody was then added. After a 30-min incubation at 37 °C, the plate was washed three times, and horseradishperoxidase-conjugated goat anti-mouse IgG was added. The plate was then incubated at 37 °C for 30 min and washed 3 times. A 100 μL aliquot of a solution containing 0.03% H2O2 and 2 mg/ml ophenylenediamine in 0.1 mol/L citrate buffer (pH 5.5) was added. The reaction was terminated by the addition of 50 μL of 2 mol/L H2SO4 as the color changed, and the plate was analyzed using a multi-well spectrophotometer (SpectraMAX 190, Molecular Devices) at 490 nm.

In assay [2] the target is Hepatocyte growth factor receptor (Homo sapiens, UniProt P08581). Put plainly: In Vitro c-Met and VEGFR-2 Enzyme Assay. As to conditions: pH 7.4; 37 °C. The protocol: as §1
Hepatocyte growth factor receptor, sequence (P08581 whole entry): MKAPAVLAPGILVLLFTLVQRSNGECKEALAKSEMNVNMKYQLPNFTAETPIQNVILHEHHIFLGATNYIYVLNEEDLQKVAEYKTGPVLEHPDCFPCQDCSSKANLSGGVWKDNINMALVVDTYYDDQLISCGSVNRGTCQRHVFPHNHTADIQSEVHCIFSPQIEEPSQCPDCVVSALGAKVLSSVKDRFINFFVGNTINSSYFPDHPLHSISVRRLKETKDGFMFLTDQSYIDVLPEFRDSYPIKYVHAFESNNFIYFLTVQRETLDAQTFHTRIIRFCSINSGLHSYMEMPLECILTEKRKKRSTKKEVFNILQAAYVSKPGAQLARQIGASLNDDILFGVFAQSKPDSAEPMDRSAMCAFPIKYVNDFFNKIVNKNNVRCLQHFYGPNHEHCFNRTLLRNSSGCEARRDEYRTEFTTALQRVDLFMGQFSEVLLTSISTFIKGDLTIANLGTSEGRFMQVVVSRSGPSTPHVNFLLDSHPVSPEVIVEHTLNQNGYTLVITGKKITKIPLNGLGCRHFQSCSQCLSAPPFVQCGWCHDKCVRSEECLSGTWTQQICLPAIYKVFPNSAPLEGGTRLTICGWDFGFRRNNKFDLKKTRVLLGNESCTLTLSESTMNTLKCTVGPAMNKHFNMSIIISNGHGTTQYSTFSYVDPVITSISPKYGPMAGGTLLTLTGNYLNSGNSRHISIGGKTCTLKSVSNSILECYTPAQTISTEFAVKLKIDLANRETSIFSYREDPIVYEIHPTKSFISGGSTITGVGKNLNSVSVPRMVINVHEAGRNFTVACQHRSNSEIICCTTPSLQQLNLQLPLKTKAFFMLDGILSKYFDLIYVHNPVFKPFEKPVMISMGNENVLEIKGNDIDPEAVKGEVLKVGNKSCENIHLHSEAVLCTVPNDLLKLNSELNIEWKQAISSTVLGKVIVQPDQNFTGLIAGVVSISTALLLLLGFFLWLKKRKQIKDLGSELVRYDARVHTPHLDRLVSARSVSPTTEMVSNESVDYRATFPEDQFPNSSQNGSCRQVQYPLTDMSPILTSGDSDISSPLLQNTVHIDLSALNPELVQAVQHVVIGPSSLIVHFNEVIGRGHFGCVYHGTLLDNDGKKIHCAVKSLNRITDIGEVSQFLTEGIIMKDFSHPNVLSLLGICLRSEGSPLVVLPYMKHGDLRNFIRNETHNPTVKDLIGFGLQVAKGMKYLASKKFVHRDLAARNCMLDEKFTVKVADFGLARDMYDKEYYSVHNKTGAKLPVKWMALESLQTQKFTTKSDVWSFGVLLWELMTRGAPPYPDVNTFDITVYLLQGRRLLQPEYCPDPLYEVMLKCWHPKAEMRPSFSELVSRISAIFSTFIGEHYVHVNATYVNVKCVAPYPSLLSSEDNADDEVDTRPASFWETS

Vascular endothelial growth factor receptor 2, sequence (P35968 whole entry): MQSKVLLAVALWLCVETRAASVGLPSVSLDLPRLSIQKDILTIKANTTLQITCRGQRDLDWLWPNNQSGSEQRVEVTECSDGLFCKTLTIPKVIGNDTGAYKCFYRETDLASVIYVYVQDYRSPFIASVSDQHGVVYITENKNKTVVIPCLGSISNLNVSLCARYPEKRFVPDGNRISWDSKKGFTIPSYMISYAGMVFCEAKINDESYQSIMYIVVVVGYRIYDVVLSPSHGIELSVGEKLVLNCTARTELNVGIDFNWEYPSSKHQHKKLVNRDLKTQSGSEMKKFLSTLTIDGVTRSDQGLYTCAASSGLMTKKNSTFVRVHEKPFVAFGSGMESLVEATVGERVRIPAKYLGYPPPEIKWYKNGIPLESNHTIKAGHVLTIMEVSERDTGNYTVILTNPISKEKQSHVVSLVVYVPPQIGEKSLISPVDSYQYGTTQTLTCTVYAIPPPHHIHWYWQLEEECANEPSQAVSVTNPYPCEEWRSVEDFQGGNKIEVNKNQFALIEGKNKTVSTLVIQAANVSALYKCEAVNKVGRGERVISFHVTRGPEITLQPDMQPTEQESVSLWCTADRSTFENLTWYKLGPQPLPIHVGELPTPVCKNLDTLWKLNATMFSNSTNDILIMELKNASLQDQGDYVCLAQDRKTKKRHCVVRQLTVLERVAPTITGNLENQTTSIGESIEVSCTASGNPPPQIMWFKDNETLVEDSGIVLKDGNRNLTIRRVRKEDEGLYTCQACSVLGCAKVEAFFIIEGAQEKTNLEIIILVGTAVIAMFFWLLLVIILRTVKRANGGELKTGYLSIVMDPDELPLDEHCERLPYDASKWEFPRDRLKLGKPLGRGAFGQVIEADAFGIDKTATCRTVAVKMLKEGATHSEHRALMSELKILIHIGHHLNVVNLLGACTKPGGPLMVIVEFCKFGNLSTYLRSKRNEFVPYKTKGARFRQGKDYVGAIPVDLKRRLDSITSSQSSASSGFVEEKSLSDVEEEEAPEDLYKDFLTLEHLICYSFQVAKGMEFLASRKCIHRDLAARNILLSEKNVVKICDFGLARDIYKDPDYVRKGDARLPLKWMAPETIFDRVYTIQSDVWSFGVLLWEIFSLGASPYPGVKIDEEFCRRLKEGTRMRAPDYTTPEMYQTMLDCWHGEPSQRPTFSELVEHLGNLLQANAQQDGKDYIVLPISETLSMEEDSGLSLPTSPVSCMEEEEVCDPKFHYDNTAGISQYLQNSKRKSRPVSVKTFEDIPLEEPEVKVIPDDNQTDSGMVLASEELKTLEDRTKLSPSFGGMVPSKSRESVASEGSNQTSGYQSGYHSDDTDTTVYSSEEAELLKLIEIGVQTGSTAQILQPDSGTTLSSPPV

On to `Cc1c(C(=O)Nc2ccc(Oc3ccnc(C(=O)NCCN4CCOCC4)c3)c(F)c2)c(=O)n(-c2ccccc2)n1C` [4-(4-(1,5-dimethyl-3-oxo-2-phenyl-2,3-dihydro-1H-pyrazole-4-carboxamido)-2-fluorophenoxy)-N-(2-morpholinoethyl)picolinamide (9l)], for which the results for the IC50 in assay [1] and in assay [2] were 860 nM and 510 nM, respectively.

As to `Cc1c(C(=O)Nc2ccc(Oc3ccnc(C(=O)NCCCN4CCOCC4)c3)c(F)c2)c(=O)n(-c2ccccc2)n1C` [4-(4-(1,5-dimethyl-3-oxo-2-phenyl-2,3-dihydro-1H-pyrazole-4-carboxamido)-2-fluorophenoxy)-N-(3-morpholinopropyl) picolinamide (9h)], the results for the IC50 in assay [1] and in assay [2] were 840 nM and 250 nM, respectively.

Consider `Cc1c(C(=O)Nc2ccc(Oc3ccnc(-c4nncn4CCCN4CCOCC4)c3)c(F)c2)c(=O)n(-c2ccccc2)n1C` [N-(3-fluoro-4-((2-(4-(3-morpholinopropyl)-4H-1,2,4-triazol-3-yl)pyridin-4-yl)oxy)phenyl)-1,5-dimethyl-3-oxo-2-phenyl-2,3-dihydro-1H-pyrazole-4-carboxamide (12c)], for which the figures for the IC50 in assay [1] and in assay [2] were 520 nM and 170 nM, respectively.

On to `Cc1c(C(=O)Nc2ccc(Oc3ccnc(-c4nncn4CCCN4CCN(C)CC4)c3)c(F)c2)c(=O)n(-c2ccccc2)n1C` [N-(3-fluoro-4-((2-(4-(3-(4-methylpiperazin-1-yl)propyl)-4H-1,2,4-triazol-3-yl)pyridin-4-yl)oxy)phenyl)-1,5-dimethyl-3-oxo-2-phenyl-2,3-dihydro-1H-pyrazole-4-carboxamide (12d)], for which, in assay [1], the IC50 came out at 190 nM. In other words, the sub-micromolar range.

As for `Cc1c(C(=O)Nc2ccc(Oc3ccnc(-c4nncn4CCCN(C)C)c3)c(F)c2)c(=O)n(-c2ccccc2)n1C` [N-(3-fluoro-4-((2-(4-(3-dimethylaminopropyl)-4H-1,2,4-triazol-3-yl)pyridin-4-yl)oxy)phenyl)-1,5-dimethyl-3-oxo-2-phenyl-2,3-dihydro-1H-pyrazole-4-carboxamide (12b)], the IC50 in assay [1] stood at 370 nM; in assay [2] it was 150 nM.

Consider `Cc1c(C(=O)Nc2ccc(Oc3ccnc(C(=O)N4CCC(N5CCCCC5)CC4)c3)c(F)c2)c(=O)n(-c2ccccc2)n1C` [N-(4-((2-([1,4'-bipiperidine]-1'-carbonyl)pyridin-4-yl)oxy)-3-fluorophenyl)-1,5-dimethyl-3-oxo-2-phenyl-2,3-dihydro-1H-pyrazole-4-carboxamide (9o)], for which the IC50 was found to be 780 nM in assay [1] and 330 nM in assay [2].

With `CCN1CCN(C(=O)c2cc(Oc3ccc(NC(=O)c4c(C)n(C)n(-c5ccccc5)c4=O)cc3F)ccn2)CC1` [N-(4-((2-(4-ethylpiperazine-1-carbonyl)pyridin-4-yl)oxy-3-fluorophenyl)-1,5-dimethyl-3-oxo-2-phenyl-2,3-dihydro-1H-pyrazole-4-carboxamide (9j)], the figures for the concentration for half-maximal inhibition (IC50) in assay [1] and in assay [2] were more than 1000 nM and 970 nM, respectively.
